Measured values as given in patent US10137102B2, “Oligomeric forms of 3-hydroxybutyrate” (Oulun Yliopisto, priority 2014, dated 2018).

Key:
Shoot tips of Scots pine = assay: Viability assay on pine shoot tips; assay type: cell-based, Pinus sylvestris L.; conditions: FIG. 3; medium including molecules (1) and (2); after five weeks; control shoot tip dead
Protocol: Viability Assay on Pine Shoot Tips Shoot tips (n=9-13) of Scots pine (Pinus sylvestris L.) were collected from young (>10 years) trees and surface-sterilized in 70% ethanol for 1 min and in 6% Ca(ClO)2 for 20 min, and rinsed thoroughly three times with sterile water. After rinsing in sterile water, the shoot tips (buds) were aseptically peeled in a laminar flow hood and placed on the media. The pine shoot tips were grown in 8/16 h photoperiod at +25±1° C. in the presence and absence of molecules of general formula I, wherein n is from 2 to 10. The viability of the pine tissue was assessed for up to 6 weeks visually (FIG. 3) and by 1% (w/v) acetocarmine staining. The viability on each fraction was recorded as percentage of live buds. The experiment was twice with each oligomer (mono- to decamer) on each Petri plate containing 18-31 pine shoot tips.

[1] = HOSC assay (fluorometric .OH scavenging capacity assay); assay type: biochemical; conditions: for hydroxyl radical scavenging activity (in words) / .OH scavengers, times better than ascorbic acid / .OH scavengers, times better than glutathione: FIG. 1; for hydroxyl radical scavenging activity (in words): compared with L-ascorbic acid, L-glutathione and 3-hydroxybutyric acid; for .OH scavengers, times better than ascorbic acid / .OH scavengers, times better than glutathione: HOSC assay under Fenton's reaction, against Trolox; for .OH scavengers, times better than ascorbic acid: comparator ascorbic acid; for .OH scavengers, times better than glutathione: comparator glutathione; for scavenging capacity, times better compared to 3-HB monomer, 3-hydroxybutyric acid (3-HBA): HOSC assay, comparator commercial 3-HBA
Protocol: HOSC Assay (Fluorometric .OH Scavenging Capacity Assay)
Assay reactions were prepared according to Moore et al. (2006) and analyzed in black 96-well polystyrene plates (FluoroNunc, Thermo Scientific) with a Victor3 multilabel plate reader (PerkinElmer, Turku, Finland). Each reaction mixture contained 170 μl of 9.28×10^−8 M fluorescein (FL) prepared in 75 mM sodium phosphate buffer (pH 7.4), 30 μl of blank or sample or standard, 40 μl of 0.1990 M H2O2, and 60 μl of 3.43 mM FeCl3, pipetted to the 96-well plate in same order. Trolox standards (20, 40, 60, 80, and 100 μM), control solutions of glutathione, vitamin C, 3-HB monomer (3-hydroxybutyric acid, 3-HBA) (Sigma-Aldrich, St. Louis, Mo.), and the 3-HB oligomer samples were freshly prepared in 50% acetone for each assay. Each reaction was pipetted onto the 96-well plate in triplicate. Fluorescence was measured at the excitation wavelength of 485 nm and the emission wavelength of 535 nm. Read time for each well was 0.1 s, and each plate was read once per minute for 3 h. Based on the area under the curve (AUC) of the Trolox concentrations and the net area under the fluorescein decay curve (Ou et al. 2001), the relative HOSC values were calculated by using the regression equation for the pure compounds. Values were expressed as Trolox equivalents (TE), where one micromole of TE corresponds to one micromole of sample. The experiment was repeated three times.
Calculation of Area Under Curve (AUC) Values: AUC=0.5+f1/f0+f2/f0+f3/f0+ . . . +fi−1/f0+0.5(fi/f0) f0=the initial fluorescence reading at 0 min fi=the final fluorescence reading Calculation of Relative HOSC Values for Pure Compounds: [(AUCsample−AUCblank)/(AUCTrolox−AUCblank)]×(Molarity of Trolox/Molarity of sample)] Iron-Catalyzed Hydroxyl Radical Formation by Haber-Weiss Driven Fenton Reaction (Liochev 1999, Kehrer 2000): Fe^3++O.^2−→Fe^2++O2 (1) Fe^2++H2O2→Fe^3++OH^−+OH.(Fenton reaction) (2)
The Net Reaction: O.^2−+H2O2→O2+OH^−+OH. (3)
Fluorometric .OH scavenging capacity (HOSC) assays for 3-HB mono-, di- and trimers (molecules of general formula 1, wherein n is 1 and 2, respectively), along with glutathione and ascorbic acid was performed. […] Oligomers of 3-HB having a chain length longer than four units had low antioxidant activity.

[2] = tested on: yeast GSH pathway deletion mutants gsh1Δ and gsh2Δ; assay type: cell-based, S. cerevisiae; conditions: FIG. 2, 2.5 mM H2O2, 65 μM FeCl3
Protocol: Yeast strains (gsh1Δ (YJL101c) and gsh2Δ (YOL049w); EUROSCARF) were streaked from glycerol stocks onto YEPD agar plates (1% w/v Bacto yeast extract; 2% w/v Bacto peptone; 2% w/v D-glucose; 2% w/v agar) and incubated at +30° C. for 48 h. Yeast pre-cultures were inoculated from the plates and grown in liquid SG minimal medium (0.67% w/v yeast nitrogen base without amino acids; 2% w/v glucose with appropriate supplements: uracil, 0.02 mg/ml; amino acids, 0.03 mg/ml) at +30° C. in orbital shaker with 180 rpm to stationary phase (1.0-1.2 OD600). Growth was measured spectrophotometrically at 600 nm (OD600) and the cell densities were adjusted to 1.0 OD600 before inoculation of the final density of 0.25 OD600 into each assay reaction.
To validate the alleviation of oxidative stress in living cells and to identify the cellular target proteins for hydroxyl radical scavenging in eukaryotic cells, a yeast deletion mutant bioassay was developed on the basis of HOSC assay (Moore et al. 2006). Hydroxyl radicals were generated under physiological pH (7.4) in Fenton-like Fe^3+/H2O2 reaction. The original assay settings were adjusted for yeast cells in phosphate buffered SG medium, and the pH and O2 levels were monitored by SENBIT® system (Vasala et al. 2006). The concentration of hydrogen peroxide was optimized to a sub-lethal level (2.5 mM) and the reaction was supplemented with appropriate amount of FeCl3 (0.0646 mM) to produce a constant flux of .OH radicals.
The total reaction volume was down-scaled to 1 ml, which made the assay suitable for the natural products low in quantity. […]
All treatments were pipetted in triplicate, and the experiment was repeated three times. Cell growth was monitored at +30° C. for 72 hours and Petri plates were scanned digitally to high-quality computer images after 48 and 72 hours. Hydroxyl radical-induced stress and the alleviation of stress by antioxidant compounds in various deletion mutant strains of S. cerevisiae were evaluated visually.

Compound | state of Scots pine shoot tip (in words) (Shoot tips of Scots pine) | hydroxyl radical scavenging activity (in words) [1] | .OH scavengers, times better than ascorbic acid [1] [times] | .OH scavengers, times better than glutathione [1] [times] | scavenging capacity, times better compared to 3-HB monomer, 3-hydroxybutyric acid (3-HBA) [1] [times] | antioxidant capacity against hydroxyl radicals (in words) ([1]; compared with 3-hydroxybutyric acid or ascorbic acid) | reversal of hypersensitivity of yeast mutants to hydroxyl radical stress (in words) [2]
COC(=O)CC(C)OC(=O)CC(C)O (centres unmarked) [Compound 1, 3-hydroxybutyrate methyl ester dimer] | alive | significantly better | 10 | 3 | 10 | more than tenfold higher | reversal of hypersensitivity
N[C@@H](CCC(=O)N[C@@H](CS)C(=O)NCC(=O)O)C(=O)O [glutathione, reference compound] | – | – | – | – | – | – | reversal of hypersensitivity
COC(=O)CC(C)OC(=O)CC(C)OC(=O)CC(C)O (centres unmarked) [Compound 2] | alive | significantly better | 10 | 3 | 10 | – | reversal of hypersensitivity
